Measured values taken from paper PMC10112504, “Novel 4-thiophenyl-pyrazole, pyridine, and pyrimidine derivatives as potential antitumor candidates targeting both EGFR and VEGFR-2; design, synthesis, biological evaluations, and in silico studies” (RSC Advances, 2023).

Columns and labels:
HepG-2 [1] = test: Anti-proliferative activity, SRB colorimetric assay; assay type: cell-based; settings: for IC50: Homo sapiens, HepG2, HepG-2 cancer cell line, SRB assay, read-out: Cell lines (IC50 μM) HepG-2; for anti-proliferative activity against HepG-2, in words: authors' grading of Table 1 values, key not given
MCF-7 = test: as above; assay type: cell-based; settings: for IC50: Homo sapiens, MCF7, MCF-7 cancer cell line, SRB assay, read-out: Cell lines (IC50 μM) MCF-7; for anti-proliferative activity against MCF-7, in words: authors' grading of Table 1 values, key not given
EGFR = EGFR (Homo sapiens, UniProt P00533); test: EGFR inhibitory activity, homogeneous luminescence release assay; assay type: biochemical; settings: reference erlotinib; read-out: EGFR inhibition IC50
Sequence of EGFR (P00533 25-1210): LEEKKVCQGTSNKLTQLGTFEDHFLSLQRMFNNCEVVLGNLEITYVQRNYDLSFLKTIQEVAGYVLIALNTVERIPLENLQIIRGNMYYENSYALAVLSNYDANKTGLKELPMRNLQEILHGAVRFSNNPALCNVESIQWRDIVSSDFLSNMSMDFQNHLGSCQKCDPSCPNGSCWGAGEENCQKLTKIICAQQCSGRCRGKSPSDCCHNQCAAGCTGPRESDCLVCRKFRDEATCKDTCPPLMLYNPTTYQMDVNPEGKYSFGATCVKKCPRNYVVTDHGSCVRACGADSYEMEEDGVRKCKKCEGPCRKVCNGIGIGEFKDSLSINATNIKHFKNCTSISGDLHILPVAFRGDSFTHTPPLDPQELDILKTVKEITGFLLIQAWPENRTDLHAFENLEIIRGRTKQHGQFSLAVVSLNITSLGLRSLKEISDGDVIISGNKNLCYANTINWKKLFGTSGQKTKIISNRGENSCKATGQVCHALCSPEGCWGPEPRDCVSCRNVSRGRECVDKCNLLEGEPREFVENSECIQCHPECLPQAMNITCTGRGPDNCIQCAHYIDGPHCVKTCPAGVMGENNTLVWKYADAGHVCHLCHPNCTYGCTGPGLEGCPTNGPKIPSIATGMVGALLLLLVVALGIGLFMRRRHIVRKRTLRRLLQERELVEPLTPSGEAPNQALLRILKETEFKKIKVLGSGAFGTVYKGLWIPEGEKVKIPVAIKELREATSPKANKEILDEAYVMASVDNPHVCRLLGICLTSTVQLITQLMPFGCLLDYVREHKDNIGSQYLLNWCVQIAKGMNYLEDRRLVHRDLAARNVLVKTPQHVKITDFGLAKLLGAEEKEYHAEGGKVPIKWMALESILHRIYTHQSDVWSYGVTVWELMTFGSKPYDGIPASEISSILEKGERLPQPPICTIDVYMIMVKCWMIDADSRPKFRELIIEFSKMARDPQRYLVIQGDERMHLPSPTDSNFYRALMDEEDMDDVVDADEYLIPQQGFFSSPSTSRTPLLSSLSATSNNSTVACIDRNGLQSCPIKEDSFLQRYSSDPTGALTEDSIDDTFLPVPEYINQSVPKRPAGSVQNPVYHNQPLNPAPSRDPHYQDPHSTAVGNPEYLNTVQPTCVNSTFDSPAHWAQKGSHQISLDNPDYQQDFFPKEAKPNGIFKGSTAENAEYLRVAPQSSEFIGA

VEGFR-2 = VEGFR-2 (Homo sapiens, UniProt P35968); test: VEGFR-2 inhibitory activity, homogeneous luminescence release assay; assay type: biochemical; settings: reference sorafenib; read-out: VEGFR-2 inhibition IC50
Sequence of VEGFR-2 (P35968 20-1356): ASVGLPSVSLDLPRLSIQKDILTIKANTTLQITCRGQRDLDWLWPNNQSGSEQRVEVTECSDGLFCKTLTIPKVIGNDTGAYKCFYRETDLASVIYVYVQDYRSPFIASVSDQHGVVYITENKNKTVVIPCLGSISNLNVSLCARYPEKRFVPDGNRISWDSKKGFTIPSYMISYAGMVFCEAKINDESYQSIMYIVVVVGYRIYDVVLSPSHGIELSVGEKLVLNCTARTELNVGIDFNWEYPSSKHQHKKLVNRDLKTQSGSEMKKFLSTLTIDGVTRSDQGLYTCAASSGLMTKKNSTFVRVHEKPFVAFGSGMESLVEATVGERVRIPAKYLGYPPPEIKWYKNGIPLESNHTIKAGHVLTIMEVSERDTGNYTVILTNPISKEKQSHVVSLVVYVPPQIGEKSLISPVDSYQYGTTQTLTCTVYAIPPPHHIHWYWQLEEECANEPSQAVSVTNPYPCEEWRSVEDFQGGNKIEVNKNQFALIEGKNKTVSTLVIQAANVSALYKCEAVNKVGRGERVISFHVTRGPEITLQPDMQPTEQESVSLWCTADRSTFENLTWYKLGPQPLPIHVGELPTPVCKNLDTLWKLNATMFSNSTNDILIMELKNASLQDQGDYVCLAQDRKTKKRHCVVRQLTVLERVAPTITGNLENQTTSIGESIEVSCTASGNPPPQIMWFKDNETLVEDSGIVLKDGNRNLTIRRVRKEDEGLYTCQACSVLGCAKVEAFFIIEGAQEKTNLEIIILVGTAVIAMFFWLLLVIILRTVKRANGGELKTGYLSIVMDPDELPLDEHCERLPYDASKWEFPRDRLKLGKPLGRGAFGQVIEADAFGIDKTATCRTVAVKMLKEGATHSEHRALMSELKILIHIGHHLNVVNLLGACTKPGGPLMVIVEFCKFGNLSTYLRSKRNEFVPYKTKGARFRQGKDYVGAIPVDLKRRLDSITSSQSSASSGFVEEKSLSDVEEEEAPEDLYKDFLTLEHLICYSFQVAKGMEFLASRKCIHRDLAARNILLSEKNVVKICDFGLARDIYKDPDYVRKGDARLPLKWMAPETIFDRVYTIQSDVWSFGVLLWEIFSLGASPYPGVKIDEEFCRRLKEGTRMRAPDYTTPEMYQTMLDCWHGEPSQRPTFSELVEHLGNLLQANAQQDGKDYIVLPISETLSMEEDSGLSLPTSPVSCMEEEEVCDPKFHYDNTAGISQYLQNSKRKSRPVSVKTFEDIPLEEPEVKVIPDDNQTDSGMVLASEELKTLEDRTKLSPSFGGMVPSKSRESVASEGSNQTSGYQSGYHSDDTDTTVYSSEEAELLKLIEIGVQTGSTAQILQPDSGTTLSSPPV
From the text: […]. Briefly, these μM inhibitory concentrations recommend greatly the proposed rationale design for the investigated compounds to act as promising dual EGFR/VEGFR-2 inhibitors.

HepG2 = test: Cell cycle analysis by flow cytometry; assay type: cell-based; settings: HepG2 treated with 10b at 13.81 μM; control 36.19%
HepG-2 [2] = test: Apoptosis analysis, FITC Annexin-V/PI kit; assay type: cell-based; settings: HepG-2 treated with 10b at 13.81 μM
From the text: This was accompanied by significant elevations in the percentage of the AnxV-FITC apoptotic cells in both the early (from 0.36 to 14.52%) and late (from 0.21 to 24.45%) apoptotic phases, compared to the control (Fig. 5 and 6). Accordingly, we can confirm the exact mechanism of the anticancer activity of 10b to be due to the programmed apoptosis pathway.
This was done using the FITC Annexin-V/PI kit.[49]

S. aureus = test: Antibacterial activity, inhibition zone approach; assay type: cell-based, Staphylococcus aureus; settings: for S. aureus Diameter of inhibition zone (mm): Gram-positive bacteria; for antimicrobial activity with S. aureus, in words: authors' grading of Table 2 values, key not given; for S. aureus % Activity index: gentamicin = 100
B. subtilis = test: Antibacterial activity, inhibition zone approach; assay type: cell-based, Bacillus subtilis; settings: for B. subtilis Diameter of inhibition zone (mm): Gram-positive bacteria; for antimicrobial activity with B. subtilis, in words: authors' grading of Table 2 values, key not given; for B. subtilis % Activity index: gentamicin = 100
E. coli = test: Antibacterial activity, inhibition zone approach; assay type: cell-based, Escherichia coli; settings: for E. coli Diameter of inhibition zone (mm): Gram-negative bacteria; for antimicrobial activity with E. coli, in words: authors' grading of Table 2 values, key not given; for E. coli % Activity index: gentamicin = 100
P. aeuroginosa = test: Antibacterial activity, inhibition zone approach; assay type: cell-based, Pseudomonas aeuroginosa; settings: for P. aeuroginosa Diameter of inhibition zone (mm): Gram-negative bacteria; for antimicrobial activity with P. aeuroginosa, in words: authors' grading of Table 2 values, key not given; for P. aeuroginosa % Activity index: gentamicin = 100
C. albicans = test: Antifungal activity, inhibition zone approach; assay type: cell-based, Candida albicans; settings: for C. albicans Diameter of inhibition zone (mm): Fungi; for antimicrobial activity with C. albicans, in words: authors' grading of Table 2 values, key not given; for C. albicans % Activity index: ketoconazole = 100
A. flavus = test: Antifungal activity, inhibition zone approach; assay type: cell-based, Aspergillus flavus; settings: for A. flavus Diameter of inhibition zone (mm): Fungi; for antimicrobial activity with A. flavus, in words: authors' grading of Table 2 values, key not given; for A. flavus % Activity index: ketoconazole = 100

## NC(=S)n1nc(-c2ccc(Cl)c(Cl)c2)cc1-c1cccs1 [10b, 3-(3,4-dichlorophenyl)-5-(thiophen-2-yl)-1H-pyrazole-1-carbothioamide]
HepG-2 [1]
  IC50: 13.8 ± 1.1 µM
  anti-proliferative activity against HepG-2, in words: strong
MCF-7
  IC50: 23.2 ± 1.8 µM
  anti-proliferative activity against MCF-7, in words: moderate
EGFR
  IC50: 0.161 µM
VEGFR-2
  IC50: 0.141 µM
HepG2
  fold change of S phase population compared to control: 1.37 fold
HepG-2 [2]; control 0.21%
  AnxV-FITC apoptotic cells, late apoptotic phase: 24.45%
HepG-2 [2]; control 1.75
  total apoptosis percentage: 44.26%
HepG-2 [2]; control […]
  AnxV-FITC apoptotic cells, early apoptotic phase: 14.52%
S. aureus
  S. aureus Diameter of inhibition zone (mm): 12 mm
  antimicrobial activity with S. aureus, in words: very strong
  S. aureus % Activity index: 66.7%
B. subtilis
  B. subtilis Diameter of inhibition zone (mm): 17 mm
  antimicrobial activity with B. subtilis, in words: very strong
  B. subtilis % Activity index: 77.3%
E. coli
  E. coli Diameter of inhibition zone (mm): 9 mm
  antimicrobial activity with E. coli, in words: moderate
  E. coli % Activity index: 42.8%
P. aeuroginosa
  P. aeuroginosa Diameter of inhibition zone (mm): 13 mm
  antimicrobial activity with P. aeuroginosa, in words: very strong
  P. aeuroginosa % Activity index: 68.4%
C. albicans
  C. albicans Diameter of inhibition zone (mm): 20 mm
  antimicrobial activity with C. albicans, in words: very strong
  C. albicans % Activity index: 71.4%
A. flavus
  A. flavus Diameter of inhibition zone (mm): 14 mm
  antimicrobial activity with A. flavus, in words: moderate
  A. flavus % Activity index: 53.8%

## CCOC(=O)CN1N=C(c2ccc(O)cc2)CC1c1cccs1 (centres unmarked) [15a, ethyl 2-(3-(4-hydroxyphenyl)-5-(thiophen-2-yl)-4,5-dihydro-1H-pyrazol-1-yl)acetate]
HepG-2 [1]
  IC50: 21.4 ± 1.5 µM
  anti-proliferative activity against HepG-2, in words: moderate
MCF-7
  IC50: 9.48 ± 0.7 µM
  anti-proliferative activity against MCF-7, in words: very strong
EGFR
  IC50: 0.894 µM
VEGFR-2
  IC50: 1.14 µM
S. aureus
  S. aureus Diameter of inhibition zone (mm): 10 mm
  antimicrobial activity with S. aureus, in words: moderate
  S. aureus % Activity index: 55.5%
B. subtilis
  B. subtilis Diameter of inhibition zone (mm): 15 mm
  antimicrobial activity with B. subtilis, in words: strong
  B. subtilis % Activity index: 68.2%
E. coli
  E. coli Diameter of inhibition zone (mm): 9 mm
  antimicrobial activity with E. coli, in words: moderate
  E. coli % Activity index: 42.8%
P. aeuroginosa
  P. aeuroginosa Diameter of inhibition zone (mm): 14 mm
  antimicrobial activity with P. aeuroginosa, in words: strong
  P. aeuroginosa % Activity index: 73.7%
C. albicans
  C. albicans Diameter of inhibition zone (mm): 18 mm
  antimicrobial activity with C. albicans, in words: strong
  C. albicans % Activity index: 64.3%
A. flavus
  A. flavus Diameter of inhibition zone (mm): 15 mm
  antimicrobial activity with A. flavus, in words: moderate
  A. flavus % Activity index: 57.7%
other
  melting point: 65 °C
